Assay results: patent publication US20160281089A1, “PREVENTION OF VIRAL INFECTIVITY” (priority 2005, published 2016)

Assays:
SFFV [1] = assay: NIH 3T3 cells infected with ODN-pretreated SFFV; format: cell-based; details: three days post-infection, real-time RT-PCR
From the text: As next step we investigated the antiviral effect of ODNs by testing pre-treated virions for residual infectivity as has been described before for HIV particles. SFFV particles were pretreated with ODN M or its variants and used to infect NIH 3T3 cells. After three days RNA was extracted from infected cells and from the supernatants and SFFV was quantified by real-time RT-PCR and analysis of amplification products (FIG. 9b).
b. NIH 3T3 cells were infected with SFFV pretreated with various ODNs. After three days the cells and supernatants were harvested and analyzed for SFFV RNA levels by quantitative real time RT-PCR (top) and RT-PCR (bottom) using GAPDH for comparison.

SFFV [2] = assay: Treatment of 5-day-SFFV-infected mice, plasma SFFV RNA by real-time RT-PCR; format: in vivo
From the text: SFFV replicates to high titers in mice, whereby the spleen is a virus-shedding reservoir. The virus stock is recovered from spleen homogenates after full-blown disease, at about day 20 post infection (pi). The clarified supernatant contains around 2×10^5 focus forming units (FFU) per mil. Infection was normally performed by intravenous (iv) injection of 4×10^3 SFFV. After 5 days the blood was recovered (100 microliters) for detection of the viral RNA. The equivalent of 0.05 microliters was enough for RNA detection by 40 cycles. One FFU corresponds to about 6×10^4 RNA copies or 3×10^4 virus particles.
A number of experiments were carried out to evaluate the effect of ODNs on the SFFV mouse model. We treated 5-day-SFFV-infected mice (thick arrow) with ODN M (triangle) and measured the plasma RNA levels 4 hours after the in vivo therapy by real-time RT-PCR (FIG. 10a.1). In a second experiment we isolated the plasma of 5-day-SFFV-infected mice and treated it ex vivo with ODN M for 4 hours (FIG. 10a.2). In the third experiment we isolated uninfected plasma, incubated it ex vivo with ODN M for 2 hours followed by the addition of SFFV for 4 more hours (FIG. 10a.3). Finally we incubated ODN M and SFFV together in normal mouse plasma ex vivo for 4 hours (FIG. 10a.4).
To elucidate further the antiviral effect of ODN M in vivo we set up different therapeutic regimens. We infected mice with SFFV and then treated them 5 days later twice at an interval of two hours with either ODN M (1 mg), asPPT, ODN A as control, or PBS. The RNA was extracted 4, 8 and 16 hours later for PCR analysis (FIG. 10b.1). The viral RNA decreased approximately 6-fold in the plasma and started to slowly increase again 16 hours post-therapy.
In the next study, we used a single injection as treatment protocol and assessed the antiviral effect of both ODN M and asPPT in a short time-course. Plasma was taken from mice at 0.5, 1, 2, and 4 hours after the single treatment (FIG. 10b.2). A strong decrease of the number of SFFV RNA copies was detectable 4 hours after treatment. […] We conclude from FIG. 10b.2 that a single injection is sufficient to decrease the number of RNA copies by approximately 6-fold 4 hours after the beginning of the therapy.
In order to test, whether the SFFV titer increases again after ODN M-treatment, and whether it remains sensitive for ODN M, we treated 5-day-SFFV-infected mice at 3 days intervals with a double dose within 2 hours intervals. Plasma was taken before and 4 hours after treatment and assessed for viral RNA levels (FIG. 10b.3). ODN M exerted a strong antiviral effect with a reduction of RNA copies of 6-fold at day 0 compared with the control. At day 3, the effect is even stronger with 8-fold decrease of the SFFV RNA level.
To obtain a more continuous effect of ODN M and asPPT on SFFV replication we treated the SFFV-infected mice every 12 hours (FIG. 10b.4). […] The lack of response is in accordance with our previous in vitro studies on the sequence-specificity of the ODN A.
PCR was performed as indicated. 1. Mice infected with 200 μl containing 4×10^3 FFU SFFV for 5 days were treated i.v. with ODN M (1 mg corresponding to about 20 μM ODN M in the blood of a mouse) or PBS 4 hours post-treatment, plasma (100 μl) was recovered and analyzed by real time RT-PCR for SFFV RNA. 2. Plasma from a 5-day-SFFV-infected mouse was recovered and 100 μl were treated with ODN M (20 μM) for 4 hours at 37° C. ex vivo and then analyzed. 3. Plasma from a mock-infected mouse was treated with ODN M (20 μM) for 2 hours and then treated with 4×10^3 FFU in 20 μl for 4 hours. 4. Plasma from mock-infected mice was incubated with a combination of SFFV (4×10^3 FFU in 20 μl) and ODN M (20 μM) for 4 hours and then analyzed. The RNA levels were determined by real-time RT-PCR in the four experimental scenarios and are shown to the right.
b. Effect of ODN treatment following SFFV-infection in vivo. […]

SFFV [3] = assay: Prophylactic SFFV mouse model: virions pre-incubated with ODNs, injected i.p., then i.v. treatments; format: in vivo, mice
Method: Next we evaluated the prophylactic effect of ODN M on SFFV replication. For this we established 5 groups of 5 mice each. We pre-incubated SFFV with different ODNs or PBS for 2 hours and then injected the two together intraperitoneally at time 0. Then the mice were treated at 2, 4, and 24 hours post-infection by i.v. route. After 5 days, plasma from the mice was analyzed for viral RNA levels. […] A blood smear of the mice at day 64 post-infection was analyzed by Giemsa staining.
a. SFFV virions pre-treated with ODNs for 2 hours were injected i.p. into mice. Subsequent treatments were at 2, 4 and 24 h post infection. 5 groups of 5 mice each were used: negative control (1), infection with PBS (2), ODN M (3), or ODN A treatment (4) and mock-infection with ODN M treatment (5). Bleeding was performed five days post-infection for analysis of the viral RNA. The relative RNA levels standardized to group 2 of fully infected mice (bars) as well as RT-PCR products of the individual mice (gel analysis) are shown.

[4] = treated every 12 hours, up to 60 hours
[5] = SFFV pre-incubated 2 hours, i.p., i.v. treatments at 2, 4, 24 hours, day 5

Sequence | SFFV RNA in infected cells and supernatant (SFFV [1]) | decrease of SFFV RNA levels (plateau) (SFFV [2]; [4]) | viral infectivity in the body after pretreatment of the virus (SFFV [3]; pretreatment in a small test tube 1 to 4 hours, then infection of the mouse) | reduction of RNA copies compared with the control (SFFV [2]; double dose within 2 hours, day 0, 4 hours after treatment) | decrease of the SFFV RNA level (SFFV [2]; double dose within 2 hours, day 3) | antiviral effect compared with asPPT (SFFV [2]; single injection, 2 hours after beginning of therapy) | decrease of number of SFFV RNA copies (SFFV [2]; single injection, 4 hours after beginning of therapy) | decrease of viral RNA in the plasma (SFFV [2]; treated twice at an interval of two hours, 1 mg, RNA at 4, 8, 16 hours) | decrease of plasma RNA levels compared to PBS control mice (SFFV [3]; [5]) | blood smear, Giemsa staining (SFFV [3]; day 64 post-infection) | effect on viral replication (SFFV [2]; double dose at 3 days intervals) | effect on decrease of the RNA level (SFFV [2]; [4]) | reduction in RNA expression level (SFFV [3]; [5])
CCCTTCCAGTCCCCCCTTTTCTTTT (chemistry not given here) [asPPT, single-stranded antisense PPT of HIV, lacks the passenger strand and the linker] | clearly less efficient | ~5 fold | completely abrogate viral infectivity |  |  |  |  |  |  |  |  |  | 
TCTTTTTGGGGGGTTTGTTTGTTTTTTCTTTCATTCCCCCCTTTTTCT (chemistry not given here) [ODN M, 22-mer antisense and 22-mer second strand connected by T4, targeted to extended PPT of SFFV] | suppressed viral replication | about 10 fold |  | 6 fold | 8 fold | stronger than that of asPPT | approximately 6 fold | approximately 6 fold | 5 fold | normal blood cell population |  |  | 
TTTTCTTTTGGGGGGTTTGGTTGGGTTTTCCCTTCCAGTCCCCCCTTTTCTTTT (phosphorothioate linkages, further chemistry not given here) [ODN A, 25 mer antisense and 25 mer passenger strand connected by T4, phosphorothioated at each end and in linker, targeted to extended PPT of HIV-1] | clearly less efficient |  |  |  |  |  |  |  |  |  | no effect on viral replication | no significant effect | 30%
